Five compounds from article PMC12340070, “A novel modulator of IL-6R prevents inflammation-induced preterm birth and improves newborn outcome” (EMBO Molecular Medicine, 2025) can be followed below.

The test system of one data set is placenta. The experiment in a line: HSJ633 biodistribution in placenta (fluorescence). Format: in vivo, mouse. As to conditions: 1 mg/kg s.c., LPS 10 μg i.p., GD17, 4 h, pregnant mice; 11–12 samples per group.
The target of data set [1] is T1, IL-6R (HEK-Blue IL-6 cells) (Homo sapiens, UniProt P08887).
T1 construct: host or cells: HEK-Blue IL-6 cells (HEK293-derived, H. sapiens)
The data set is described as follows: IL-6-induced IL-1β, TNF-α and IL-6 mRNA in HEK-Blue IL-6 cells, dose-response (RT-qPCR). Type of data set: cell-based. How it is done:
For in vitro dose–response experiments, HEK-blue IL-6 cells were allowed to acclimate for two passages to complete the stabilization of the receptor before experiments. Prior to experiments, cells at 70% of confluence were added to six-well plates, then starved overnight before media was changed 30 min prior to beginning the stimulation. After the 30 min pre-incubation, the cells were treated with HSJ633 (from 1 × 10^−12 to 1 × 10^−4 M) allowed to sit for 15 min, treated with 3.86 nM of IL-6, and incubated for 6 h. Cell lysis and mRNA extraction were performed by adding RiboZol. Samples were stored at −20 °C until RNA extraction and quantification (see section below).
For RT-qPCR experiments, cells were plated in 6-well plates at 70% of confluence and starved overnight. Cells were treated respectively with HSJ633, HSJ630, HSJ631, HSJ634, HSJ635, HSJ639 (1 × 10^−6 M), or TCZ (3.44 μM, based on validated doses (Sahraoui et al, [2014])) for TNF-α expression. For hIL-1, hIL-6, and hTNF-α expression, cells were treated with HSJ633 using concentrations ranging from 10^−11 to 10^−4 M, allowing for equilibrium over 15 min. Cells were then treated with […] of IL-6 for 6 h for both experiments. Cell lysis was performed by adding RIBOzol. Samples were stored at −20 °C until analysis by quantitative PCR. To determine the degree of phosphorylation of different proteins (STAT3, ERK, AKT, and p38), HEK-Blue IL-6 cells were treated with HSJ633 (10^−6 M), TCZ (3.44 uM) or vehicle for 30 min in DMEM only. Human IL-6 (3.86 nM) was added to the medium for 15 min to stimulate IL-6R pathways leading to STAT3, ERK, and AKT activation. For p38 activation, 25 min of stimulation with IL-6 was required. The wells were charged with radioimmunoprecipitation assay buffer (RIPA) at a concentration of 1×, cOmplete EDTA-free Protease Inhibitor Cocktail final concentration 1×, and phenylmethanesulfonyl fluoride (PMSF) 1 mM. Samples were shaken for 30 min followed by centrifugation at 12,000 RPM at 4 °C for 20 min to harvest the proteins. Proteins were stored at −80 °C until analysis by immunoblotting.
Samples (30 mg) of uterus, placenta, fetal membranes, as well as the fetal lung, brain, and intestine, were thawed and deposited in lysis buffer according to the manufacturer’s protocol (Qiagen RNeasy Plus Mini Kit). Cell lysis and RNA extraction were performed directly into RiboZol. RNA was extracted from tissue fragments and cells according to the manufacturer’s protocol. RNA was quantified with a NanoDrop 1000 spectrophotometer and samples (500 ng) were treated with DNAse I (1U). RNA was used to synthesize cDNA using iScript reverse transcription superMix. Quantitative gene expression analysis was performed on a Light Cycler 96 with iTaq Universal SYBR Green Supermix. […]
Target sequence in this assay (P08887 20-468): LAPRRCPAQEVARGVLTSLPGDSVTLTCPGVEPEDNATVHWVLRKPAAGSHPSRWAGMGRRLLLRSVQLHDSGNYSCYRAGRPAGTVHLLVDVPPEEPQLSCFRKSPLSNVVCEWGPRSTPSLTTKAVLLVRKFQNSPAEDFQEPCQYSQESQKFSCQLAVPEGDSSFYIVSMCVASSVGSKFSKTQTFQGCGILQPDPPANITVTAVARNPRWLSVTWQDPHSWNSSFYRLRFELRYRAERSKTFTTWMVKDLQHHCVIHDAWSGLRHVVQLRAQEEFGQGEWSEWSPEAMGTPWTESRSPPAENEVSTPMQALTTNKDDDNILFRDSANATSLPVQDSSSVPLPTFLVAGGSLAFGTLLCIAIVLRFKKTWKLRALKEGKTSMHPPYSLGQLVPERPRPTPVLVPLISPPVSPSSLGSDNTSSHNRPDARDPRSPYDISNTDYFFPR
Target sequence in this assay (P40189 23-918 partner): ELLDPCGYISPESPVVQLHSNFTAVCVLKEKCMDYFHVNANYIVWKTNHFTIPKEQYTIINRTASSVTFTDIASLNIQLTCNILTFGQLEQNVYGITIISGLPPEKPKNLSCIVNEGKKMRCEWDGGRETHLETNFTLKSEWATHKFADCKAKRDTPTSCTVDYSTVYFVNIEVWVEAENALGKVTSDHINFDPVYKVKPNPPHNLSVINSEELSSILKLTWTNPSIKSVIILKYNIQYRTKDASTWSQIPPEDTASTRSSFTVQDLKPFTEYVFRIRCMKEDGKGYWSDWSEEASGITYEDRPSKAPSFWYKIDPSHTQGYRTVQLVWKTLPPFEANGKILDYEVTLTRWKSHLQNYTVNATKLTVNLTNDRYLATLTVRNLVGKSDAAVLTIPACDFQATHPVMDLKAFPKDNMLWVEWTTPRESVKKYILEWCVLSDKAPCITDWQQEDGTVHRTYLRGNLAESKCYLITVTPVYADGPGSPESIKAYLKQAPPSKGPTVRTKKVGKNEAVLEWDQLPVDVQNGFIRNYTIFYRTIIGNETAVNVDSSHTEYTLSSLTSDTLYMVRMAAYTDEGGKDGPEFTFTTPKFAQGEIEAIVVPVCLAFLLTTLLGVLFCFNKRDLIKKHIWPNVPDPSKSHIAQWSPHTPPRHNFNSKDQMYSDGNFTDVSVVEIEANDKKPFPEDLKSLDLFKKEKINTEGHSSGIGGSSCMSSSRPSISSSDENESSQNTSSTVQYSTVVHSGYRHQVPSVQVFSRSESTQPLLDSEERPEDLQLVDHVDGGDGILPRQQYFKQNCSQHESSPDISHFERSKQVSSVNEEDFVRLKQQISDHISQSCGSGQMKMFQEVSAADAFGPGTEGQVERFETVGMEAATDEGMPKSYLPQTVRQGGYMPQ
Target sequence in this assay (P05231 30-212 partner): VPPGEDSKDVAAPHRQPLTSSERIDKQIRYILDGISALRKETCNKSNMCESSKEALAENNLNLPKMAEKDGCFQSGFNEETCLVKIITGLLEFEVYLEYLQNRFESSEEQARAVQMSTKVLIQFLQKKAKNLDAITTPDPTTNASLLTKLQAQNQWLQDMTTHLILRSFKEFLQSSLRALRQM
On the technique in general: In qPCR the cycle at which signal appears reflects the starting amount.

Data set [2] concerns the target T1, IL-6R (HEK-Blue IL-6 cells). The experiment in a line: [125I]-HSJ633 binding and displacement on HEK-Blue IL-6 cells. The following applies: 3–4 samples per group. How it is done:
(§1) The Bolton–Hunter reaction was utilized to conjugate the N-hydroxysuccinimide ester of 3-(4-hydroxyphenyl) propionic acid, a tyrosine-like residue, to primary amines as per the manufacturer’s instructions. Briefly, the peptide was dissolved in modification buffer (pH 9.0), then 100 μL of Bolton–Hunter Reagent was added and incubated for 3 h with periodic mixing. After incubating, the solution was dialyzed in PBS using a PlusOne Mini Dialysis Kit. Then 25 μL of peptide, 80 μL of PBS, and 25 μL of I^125 were combined in a precoated tube for 15 min. The reaction was stopped, and C-18 spin columns were used to perform washes and collect the iodine-marked peptide. Radioactivity measurements were made for each batch of radioactive peptides using a Gamma counter (Packard Cobra-II Auto Gamma Counter).
(§2) The HEK-blue IL-6 cells were allowed to acclimatize for two passages to complete the stabilization of the receptor. Prior to experiments, media was changed to adjust for a maximum quantity of 500 μL per well. Subsequently, unlabeled HSJ633 (10^−4 M) was added and allowed to reach equilibrium for 15 min. HEK293 and HEK-Blue IL-6 cells were then treated with the labeled HSJ633 in a quantity equating to 50,000 CPM per well. […] All samples were measured using a Gamma counter (Packard Cobra-II Auto Gamma Counter).

The subject of another data set is lung parenchyma. As to conditions: mouse, in vivo. Here is the method:
To determine the maximal delay of administration of HSJ633, LPS was injected as previously described, and HSJ633 was either administered 2 h or 6 h after the LPS injection at GD16. Dams were consistently observed for delivery until term (G18.5–19.5), and the body weight and survival rate (if 2 or more pups are alive, the litter is considered alive) of the neonates were recorded. The prematurity rate was assessed by determining the number of dams delivering prematurely (gestation length before 18.5 days) out of the total number of dams in the same group. The pups were sacrificed at PT7 for histological analysis.
Histology was performed as described by Habelrih et al (Habelrih et al, [2023]). Images were captured using ×10 objective with a Zeiss AxioScan.Z1.

Data set [3] has as its target T1, IL-6R (HEK-Blue IL-6 cells). The experiment in a line: TNF-α expression in HEK-Blue IL-6 cells (RT-qPCR), peptide screening. Format: cell-based. As to conditions: IL-6 3.86 nM 6 h, peptides 1 μM, TCZ 3.44 μM, RT-qPCR normalized to 18S, 2-9 samples per group. How it is done: HEK293 and HEK-blue IL-6 cells were purchased and were used at fewer than 15 passages and tested mycoplasma negative. Cells were cultured in DMEM growth medium supplemented with 10% fetal bovine serum (FBS), 50 U/mL penicillin, and 50 μg/mL streptomycin. HEK-blue IL-6 cell media was also supplemented with HEK-Blue Selection (1:250). Ba/F3-polylinker, Ba/F3-mgp130, and Ba/F3-mgp130-IL-6Rα cells were cultured in RPMI 1640 growth medium supplemented with 10% FBS, 50 U/mL penicillin, and 50 μg/mL streptomycin. These cells were maintained in murine IL-3 at 10 ng/mL and puromycin at 1 μg/mL. Cells were cultured in standard experimental conditions (37 °C, 5% CO2).
For RT-qPCR experiments, cells were plated in 6-well plates at 70% of confluence and starved overnight. […] Samples were stored at −20 °C until analysis by quantitative PCR. […]
Samples (30 mg) of uterus, placenta, fetal membranes, as well as the fetal lung, brain, and intestine, were thawed and deposited in lysis buffer according to the manufacturer’s protocol (Qiagen RNeasy Plus Mini Kit). […] RNA was quantified with a NanoDrop 1000 spectrophotometer and samples (500 ng) were treated with DNAse I (1U). […] Quantitative gene expression analysis was performed on a Light Cycler 96 with iTaq Universal SYBR Green Supermix. […]
Target sequence in this assay (P08887 20-468): as the sequence (P08887 20-468) above
Target sequence in this assay (P40189 23-918 partner): as the sequence (P40189 23-918 partner) above
Target sequence in this assay (P05231 30-212 partner): as the sequence (P05231 30-212 partner) above

A further data set has as its system HEK293 cells. The data set is described as follows: [125I]-HSJ633 binding on HEK293 cells devoid of IL-6R. As to conditions: [125I]-HSJ633 10^−8 M, 1.5 h; four samples per group. Also on record: species or system human. How it is done: as §1, §2
Data set [4] deals with LPS-induced preterm birth in CD-1 mice. The experiment in a line: STAT3 inhibitor efficacy in LPS-induced PTB: gestational length and prematurity rate. Type of data set: in vivo, mouse. The following applies: for prevention of LPS-induced PTB: 5 mg/kg/day s.c., twice a day, GD16; for % PTB: group value; for GD (gestation day): individual dams, one per line. Here is the method:
Timed pregnant CD-1 mice at days 16 and 17 of gestation were anesthetized with isoflurane and given intraperitoneal (i.p.) injections of LPS (4 μg in 100 μL saline on GD16 and 6 μg in 100 μL saline on GD17, total 10 μg) or vehicle (100 μL). Doses of LPS were selected based on previous reports (Chang et al, [2011]; Elovitz and Mrinalini, [2004]; Fidel et al, [1994]; Sadowsky et al, [2006]; Salminen et al, [2008]; Urakubo et al, [2001]), preliminary dose–response experiments, and knowing that a systemic maternal infection is associated with the onset of labor (Romero et al, [2001]). A total of 100 μL of HSJ633 or HSJ639 (2 mg/kg/day), an anti-IL-6R antibody (800 μg/kg/day) or vehicle was injected subcutaneously (s.c.) 30 min before injections of LPS (to allow distribution of drugs to target tissues) and repeated twice daily until GD18.5.
Thirty minutes before administering LPS, on GD16, NSC74859 (5 mg/kg/day solubilized in 20% DMSO + water, injected twice a day s.c.) or rmgp130/Fc Chimera (10 μg i.p. on GD16 and 10 μg s.c. on GD16.5) were injected into distinct dams. The same LPS-induction PTB model as described above was used for these experiments (4 μg on GD16 + 6 μg on GD17, i.p.). Delivery was assessed until term (GD18.5–19.5).

Where “and” joins values, the source holds several entries; their conditions need not be identical. Identical values can stand only once. Entries after “also recorded” stand apart in the source; their conditions may differ. Where a SMILES comes first, the peptide text is derived from it. Where no end group is shown, it is not given here. [ ]: non-standard residue; d: D form.

Protocol for placenta: Mice were euthanized after 4 h to analyze tissue distribution of the fluorescent-tagged compounds. Placentas were collected and fixed in 4% paraformaldehyde for 1 day and transferred into 30% sucrose for another day. Placental cryosections were stained with DAPI (0.0002 mg/mL) for nuclei. Images were captured using a ×20 objective with a Zeiss AxioScan.Z1. Fluorescence analysis was performed using ImageJ.

Turning to `O=C1OC2(c3ccc(O)cc3Oc3cc(O)ccc32)c2ccc(N=C=S)cc21` [FITC], in the data set on placenta, the “placental fluorescence, LPS-treated” value is “increase in signal intensity in the placenta”.

As for `CC(C)[C@@H](N)C(=O)N[C@H](CCCNC(=N)N)C(=O)N[C@H](CCCCN)C(=O)N[C@H](Cc1ccccc1)C(=O)N[C@H](CCC(N)=O)C(=O)N[C@H](CC(N)=O)C(=O)N[C@H](CO)C(=O)N1CCC[C@@H]1C(=O)N[C@H](C)C(=O)O` [HSJ633] (HELM PEPTIDE1{[dV].[dR].[dK].[dF].[dQ].[dN].[dS].[dP].[dA]}$$$$V2.0), the half-maximal inhibitory concentration (IC50) is 0.8 nM in data set [1] (HEK-Blue IL-6, HSJ633 10^−11–10^−4 M, IL-6 3.86 nM 6 h, RT-qPCR normalized to 18S, 3–8 samples per group, read-out: IC50 hIL-1β mRNA); 2 nM in data set [1] (HEK-Blue IL-6, HSJ633 10^−11–10^−4 M, IL-6 3.86 nM 6 h, RT-qPCR normalized to 18S, 3–8 samples per group, read-out: IC50 hIL-6 mRNA); 0.2 nM in data set [1] (HEK-Blue IL-6, HSJ633 10^−11–10^−4 M, IL-6 3.86 nM 6 h, RT-qPCR normalized to 18S, 3–8 samples per group, read-out: IC50 hTNF-a mRNA); around 1 nM in data set [1] (HEK-Blue IL-6, IL-6 3.86 nM, 6 h, RT-qPCR, average over three cytokines, read-out: average IC50, inhibition of IL-6-induced expression of IL-1β, TNF-α, and IL-6 mRNA); 12 nM in data set [2] (1.5 h room temperature, gamma counter, read-out: IC50, displacement of bound [125I]-HSJ633 by cold HSJ633 (% of specific binding)). Further, the “alveolar density in lung, referee's reading of figure” value in the data set on lung parenchyma is “causes loss of alveolar density in the lung”.

As for “IL-6: human IL-6, Peprotech 200-06, endogenous IL-6R ligand”, the TNF-α expression result in data set [3] is listed as “induced TNF-α expression”. In addition, the “displacement of [125I]-HSJ633 by IL-6” value in data set [2] ([125I]-HSJ633 10^−8 M, IL-6 10^−4 M) is recorded as “not by non-radioactive IL-6; also recorded: IL-6 does not displace binding of HSJ633”.

As for “[^125I]-HSJ633: HSJ633 iodine-labeled after Bolton–Hunter reaction ([dV][dR][dK][dF][dQ][dN][dS][dP][dA]; also: Bolton–Hunter reagent (3-(4-hydroxyphenyl)propionic acid) conjugated to primary amines, iodinated with 125I)”, the “[125I]-HSJ633 binding on HEK293 cells devoid of IL-6R” value in the data set with HEK293 cells is on record as “No binding”.

Regarding `Cc1ccc(S(=O)(=O)OCC(=O)Nc2ccc(C(=O)O)c(O)c2)cc1` [NSC74859], the “prevention of LPS-induced PTB” value is recorded as “successfully inhibited preterm birth” in data set [4] and “effective in preventing LPS-induced PTB” in data set [4] (listed as NCS74859). Besides, the “% PTB” value turned out to be 25.00% in data set [4] (experiment of April 2022, less than 18 days = PTB); 20.00% in data set [4] (experiment of May 2022); 42.86% in data set [4] (third, undated experiment). For the same compound, the “GD (gestation day)” value was 18 and 18.5 and 19 in data set [4] (experiment of April 2022, 18.5 days and more = term); 19.5 and 18.5 and 17.5 in data set [4] (experiment of May 2022); 17 and 17.5 and 19 and 19.5 in data set [4] (third, undated experiment).

For orientation: IC50 means the concentration needed to halve the response being measured.
